The source of these data is paper PMC6681416, “Novel Derivatives of Deoxycholic Acid Bearing Linear Aliphatic Diamine and Aminoalcohol Moieties and their Cyclic Analogs at the C3 Position: Synthesis and Evaluation of Their In Vitro Antitumor Potential” (Molecules, 2019).

Molecules are shown by their SMILES. A value given as a limit tells only on which side of the number the result lay.

In test [1] the test system is HuTu-80 cells. In words: cells. The format is cell-based. The text has this:
(§1) According to our previous data and data published by other research groups, chemical transformations of bile acids can greatly improve their antitumor potential. Thus, as the first step of evaluation of the biological activities of our novel DCA derivatives we assessed their effects on tumor cell viability. The cytotoxicity of the compounds was investigated with respect to a panel of cultured cell lines, including human duodenal HuTu-80, hepatocellular HepG2, cervical KB-3-1 and lung A549 carcinomas as well as murine macrophage RAW264.7 and non-transformed human fibroblasts hFF3 by MTT assay.
(§2) Human duodenal carcinoma HuTu-80 cells, human hepatocellular carcinoma HepG2 cells, human cervical carcinoma KB-3-1 cells, human lung carcinoma A549 cells were obtained from the Russian Cell Culture Collection (Institute of Cytology, RAS, St. Petersburg, Russia). Non-transformed human fibroblasts hFF3 were kindly provided by Dr. Olga Koval (Institute of Chemical Biology and Fundamental Medicine, SB RAS, Novosibirsk, Russia). RAW264.7 macrophages were kindly provided by Prof. Dr. Dmitry Kuprash (Engelhardt Institute of Molecular Biology, RAS, Moscow, Russia). The cells were cultured in DMEM (Sigma-Aldrich Inc., St. Louis, MO, USA) supplemented with 10% (v/v) heat-inactivated fetal bovine serum (FBS) (BioloT, St. Petersburg, Russia), 100 U/mL penicillin (ICN Biomedicals Inc., Costa Mesa, CA, USA), 100 µg/mL streptomycin and 0.25 µg/mL amphotericin; additionally, in the case of RAW264.7 cells, concentration of glucose in the medium was increased up to 4.5 mg/mL. The cells were incubated at 37 °C in 5% CO2 and 95% air (hereafter referred to as standard conditions). DCA derivatives were dissolved in DMSO to yield stock solutions of 10 mmol/L and stored at −20 °C prior to use.
(§3) Cells were seeded in triplicate in 96-well plates at a density of 5 × 10^3 (HuTu-80, HepG2, KB-3-1, hFF3), 10^4 (A549) or 5 × 10^4 (RAW264.7) cells per well. Cells were incubated under standard conditions for 24 h and then they were treated with varying doses of investigated derivatives for subsequent 24 h. Then 10 µL of MTT solution (5 mg/mL) were added to each wells and cells were incubated for an additional 2 h under standard conditions. The crystals of formazan forming within live cells were solubilized with DMSO and the absorbance was measured in a Multiscan RC plate reader (Thermo LabSystems, Helsinki, Finland) at a test and reference wavelengths of 570 nm and 620 nm, respectively. […] To perform SAR analysis, hierarchical clustering of compounds based on their IC50 values was fulfilled with Euclidean distance by using the Morpheus tool (https://software.broadinstitute.org/morpheus/), a platform designed for visualization and analysis of data in a matrix format. Heatmap, containing compounds’ SI values, were constructed by using the Excel 2010 software (Microsoft, Redmond, WA, USA). In order to reveal whether ROS participate in the induction of cell death by compound 9, HuTu-80 cells cultured in 96-well plate were pretreated by NAC at 2 mM for 1 h. Thereafter, the medium was replaced by fresh medium with compound 9 at 8 µM and the cells were incubated with subsequent 24 h under standard conditions. After this time period, the curves of cytotoxicity of compound 9 in the presence or absence of NAC were compared.

Another test relates to KB-3-1 cells. The test is described as follows: MTT cytotoxicity assay, KB-3-1. The class given is cell-based, human.
Excerpt: as §1, §2, §3
(In general: Formazan colour is commonly taken as a measure of viable cells.)

In a further test the test system is A549 cells. The test is described as follows: MTT cytotoxicity assay, A549. The format is cell-based, human.
Excerpt: as §1, §2, §3

Another test has as its system RAW264.7 macrophages. In words: MTT cytotoxicity assay, RAW264.7. The format is cell-based, murine.
Excerpt: as §1, §2, §3

Test [2] has as its system non-transformed human fibroblasts hFF3. In words: MTT cytotoxicity assay, hFF3. The format is cell-based. The conditions noted are these: HFF-3, 24 h, read-out: IC50 hFF3 (fibroblast).
Excerpt: as §1
as §2, with “DCA derivatives were dissolved in DMSO to yield stock solutions of 10 mmol/L and stored at −20 °C prior to use.” left out
Cells were seeded in triplicate in 96-well plates at a density of 5 × 10^3 (HuTu-80, HepG2, KB-3-1, hFF3), 10^4 (A549) or 5 × 10^4 (RAW264.7) cells per well. […] The crystals of formazan forming within live cells were solubilized with DMSO and the absorbance was measured in a Multiscan RC plate reader (Thermo LabSystems, Helsinki, Finland) at a test and reference wavelengths of 570 nm and 620 nm, respectively. […]

Test [3] relates to NO synthesis by IFNγ-activated RAW264.7 cells. The test is described as follows: Inhibition of NO production by stimulated macrophages (Griess). The format is cell-based, murine. The conditions noted are these: Mus musculus, RAW264.7, 24 h, read-out: IC50NO. Here is the method: RAW264.7 cells were seeded in triplicate in 96-well plates at a density of 5 × 10^4 cells/well and incubated under standard conditions for 24 h. The cells were treated with 20 ng/mL of murine recombinant IFNγ (GIBCO, Gaithersburg, MD, USA), with or without (control) compounds at various concentrations for 24 h. The level of NO production was evaluated by determining the nitrite concentration in culture medium with a Griess Reagent System (Promega, Madison, WI, USA). The IC50^NO value was calculated as the derivative concentration required to decrease NO production to 50% of the non-treated control.
(The Griess reaction detects nitrite, a stable product of nitric oxide.)

The test system of test [4] is HuTu-80 cells. In words: Autophagy detection (MDC staining). The conditions noted are these: 8 µM, 24 h, versus control. The class given is cell-based, human. The text has this:
It is known that bile acids can induce cell death independently of apoptosis by activation of autophagy. Autophagy is a regulated lysosome-dependent pathway involved in the degradation of damaged and obsolete intracellular components. During autophagy, these components are isolated by a bilayer membrane resulting in autophagosome formation. Autophagosomes than fuse with lysosomes that leads to enzymatic degradation of their contents. During prolonged and strong stress, cells can autophagocytize up to a half of their cytoplasm that leads to a collapse of cell functions and, as a result, cell death. Monodansylcadaverin (MDC) is an autofluorescent amine that specifically accumulates within autophagic vacuoles and, therefore, can be used as a marker of autophagy.
HuTu-80 cells were seeded in 6-well plates at a density of 5 × 10^5 cells per well and incubated for 24 h under standard conditions. Then the cells were treated by compound 9 at 8 µM for 24 h, collected by trypsinization, washed with PBS, suspended with 50 µM of MDC at 37 °C for 15 min and analyzed using NovoCyte Flow Cytometer (ACEA Biosciences Inc.). In order to evaluate the type of autophagy (cytoprotective or cytodestructive), HuTu-80 cells were seeded in 96-well plate at a density of 5 × 10^3 cells/well for 24 h followed by co-treatment with compound 9 at 8 µM and chloroquine, an autophagy inhibitor, at 50 µM for 24 h. […]

For the compound `COC(=O)CC[C@@H](C)[C@H]1CC[C@H]2[C@@H]3CC[C@@H]4CC(O)(CNCCCO)CC[C@]4(C)[C@H]3CC(=O)[C@]12C` (stereo partly drawn) [Compound 9, Methyl 3-hydroxy-3-((3-hydroxypropylamino)methyl)-12-oxo-5β-cholan-24-oate], the IC50 is 4 ± 0.5 µM in the test with HuTu-80 cells [1] (Homo sapiens, HuTu80, MTT, 24 h, read-out: IC50 HuTu-80 (duodenum)); 22.8 ± 1.8 µM with KB-3-1 cells (Homo sapiens, KB 3-1, MTT, 24 h, read-out: IC50 KB3-1 (cervix)); 29 ± 3.5 µM with A549 cells (Homo sapiens, A549, MTT, 24 h, read-out: IC50 A549 (lung)); 19.3 ± 3.7 µM in the test on RAW264.7 macrophages (Mus musculus, RAW264.7, MTT, 24 h, read-out: IC50 RAW264.7 (macrophage)); 33.3 ± 1.2 µM in test [2]; > 10 µM in test [3]. Further, in the test on HuTu-80 cells [1] (ratio IC50 hFF3 / IC50 HuTu-80), the “Selectivity index HuTu-80” value is 8.3. For the same compound, in the test on KB-3-1 cells (ratio IC50 hFF3 / IC50 KB-3-1), the “Selectivity index KB-3-1” value is 1.4. For the same compound, the “Selectivity index A549” value with A549 cells (ratio IC50 hFF3 / IC50 A549) came to 1.1. In addition, the “Selectivity index RAW264” value in the test on RAW264.7 macrophages (ratio IC50 hFF3 / IC50 RAW264.7) came to 1.7. For the same compound, the “intensity of MDC-associated fluorescence” value in the test with HuTu-80 cells [4] is given as “significantly higher than in control”.
